Measured values taken from ChEMBL document CHEMBL4507260 (2021).

Columns and labels:
Conditions in all cases: Compound concentration 1000.0 nM
[1] = biological target: Tyrosine-protein kinase ABL2 (Homo sapiens) (UniProt P42684)
[2] = biological target: Atypical kinase COQ8A, mitochondrial (Homo sapiens) (UniProt Q8NI60)
[3] = biological target: Atypical kinase COQ8B, mitochondrial (Homo sapiens) (UniProt Q96D53)
[4] = biological target: NUAK family SNF1-like kinase 1 (Homo sapiens) (UniProt O60285)
[5] = test system: Serine/threonine-protein kinase B-raf (Homo sapiens), P15056 [V600E]
[6] = biological target: Calcium/calmodulin-dependent protein kinase type 1 (Homo sapiens) (UniProt Q14012)
[7] = biological target: Cyclin-dependent kinase 3 (Homo sapiens) (UniProt Q00526)
[8] = biological target: Cyclin-dependent kinase 4 (Homo sapiens) (UniProt P11802)
[9] = biological target: Serine/threonine-protein kinase 17A (Homo sapiens) (UniProt Q9UEE5)
[10] = biological target: Dual specificity tyrosine-phosphorylation-regulated kinase 2 (Homo sapiens) (UniProt Q92630)
[11] = test system: Epidermal growth factor receptor (Homo sapiens), P00533 [T790M]
[12] = biological target: Ephrin type-B receptor 3 (Homo sapiens) (UniProt P54753)
[13] = biological target: Fibroblast growth factor receptor 1 (Homo sapiens) (UniProt P11362)
[14] = biological target: Interleukin-1 receptor-associated kinase 4 (Homo sapiens) (UniProt Q9NWZ3)
[15] = biological target: Tyrosine-protein kinase JAK1 (Homo sapiens) (UniProt P23458)
[16] = biological target: Mast/stem cell growth factor receptor Kit (Homo sapiens) (UniProt P10721)
[17] = biological target: Mitogen-activated protein kinase kinase kinase 13 (Homo sapiens) (UniProt O43283)
[18] = biological target: Serine/threonine-protein kinase MARK1 (Homo sapiens) (UniProt Q9P0L2)
[19] = test system: Hepatocyte growth factor receptor (Homo sapiens), P08581 [Y1235D]
[20] = biological target: Macrophage-stimulating protein receptor (Homo sapiens) (UniProt Q04912)
[21] = biological target: Serine/threonine-protein kinase Nek2 (Homo sapiens) (UniProt P51955)
[22] = biological target: Mitogen-activated protein kinase kinase kinase 14 (Homo sapiens) (UniProt Q99558)
[23] = biological target: Serine/threonine-protein kinase PAK 3 (Homo sapiens) (UniProt O75914)
[24] = biological target: Cyclin-dependent kinase 18 (Homo sapiens) (UniProt Q07002)
[25] = biological target: Platelet-derived growth factor receptor alpha (Homo sapiens) (UniProt P16234)
[26] = biological target: Calcium-dependent protein kinase 1 (Plasmodium falciparum) (UniProt P62344)
[27] = biological target: Cyclin-dependent kinase 2 homolog (Plasmodium falciparum (isolate 3D7)) (UniProt P61075)
[28] = test system: Phosphatidylinositol 4,5-bisphosphate 3-kinase catalytic subunit alpha isoform (Homo sapiens), P42336 [E542K]
[29] = test system: Phosphatidylinositol 4,5-bisphosphate 3-kinase catalytic subunit alpha isoform (Homo sapiens), P42336 [E545A]
[30] = test system: Phosphatidylinositol 4,5-bisphosphate 3-kinase catalytic subunit alpha isoform (Homo sapiens), P42336 [Q546K]
[31] = biological target: Phosphatidylinositol 4,5-bisphosphate 3-kinase catalytic subunit beta isoform (Homo sapiens) (UniProt P42338)
[32] = biological target: Phosphatidylinositol 4-phosphate 5-kinase type-1 alpha (Homo sapiens) (UniProt Q99755)
[33] = biological target: Serine/threonine-protein kinase D3 (Homo sapiens) (UniProt O94806)
[34] = biological target: RAF proto-oncogene serine/threonine-protein kinase (Homo sapiens) (UniProt P04049)
[35] = biological target: Proto-oncogene tyrosine-protein kinase ROS (Homo sapiens) (UniProt P08922)
[36] = biological target: SNF-related serine/threonine-protein kinase (Homo sapiens) (UniProt Q9NRH2)
[37] = biological target: STE20/SPS1-related proline-alanine-rich protein kinase (Homo sapiens) (UniProt Q9UEW8)
[38] = biological target: Serine/threonine-protein kinase TAO1 (Homo sapiens) (UniProt Q7L7X3)
[39] = biological target: TRAF2 and NCK-interacting protein kinase (Homo sapiens) (UniProt Q9UKE5)
[40] = biological target: Activated CDC42 kinase 1 (Homo sapiens) (UniProt Q07912)
[41] = biological target: High affinity nerve growth factor receptor (Homo sapiens) (UniProt P04629)
[42] = biological target: Vascular endothelial growth factor receptor 2 (Homo sapiens) (UniProt P35968)
[43] = biological target: Serine/threonine-protein kinase WNK2 (Homo sapiens) (UniProt Q9Y3S1)
[44] = biological target: Serine/threonine-protein kinase 32A (Homo sapiens) (UniProt Q8WU08)
[45] = biological target: Tyrosine-protein kinase Yes (Homo sapiens) (UniProt P07947)

Measured: residual activity

Atypical kinase COQ8A, mitochondrial (Homo sapiens), sequence (Q8NI60 163-647 limits assumed): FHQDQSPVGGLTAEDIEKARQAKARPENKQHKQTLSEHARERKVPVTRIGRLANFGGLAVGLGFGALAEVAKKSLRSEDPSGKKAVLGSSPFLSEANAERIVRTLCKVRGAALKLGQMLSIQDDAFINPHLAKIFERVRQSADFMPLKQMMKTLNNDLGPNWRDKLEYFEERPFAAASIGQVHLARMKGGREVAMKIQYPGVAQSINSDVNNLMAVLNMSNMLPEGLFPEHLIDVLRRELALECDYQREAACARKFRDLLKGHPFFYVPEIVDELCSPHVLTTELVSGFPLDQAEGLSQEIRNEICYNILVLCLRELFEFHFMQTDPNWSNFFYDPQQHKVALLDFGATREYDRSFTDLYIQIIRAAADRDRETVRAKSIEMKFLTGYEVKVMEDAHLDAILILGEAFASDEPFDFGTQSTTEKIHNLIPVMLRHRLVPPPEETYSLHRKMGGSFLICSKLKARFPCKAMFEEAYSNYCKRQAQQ
Tyrosine-protein kinase Yes (Homo sapiens), sequence (P07947 2-543 limits assumed): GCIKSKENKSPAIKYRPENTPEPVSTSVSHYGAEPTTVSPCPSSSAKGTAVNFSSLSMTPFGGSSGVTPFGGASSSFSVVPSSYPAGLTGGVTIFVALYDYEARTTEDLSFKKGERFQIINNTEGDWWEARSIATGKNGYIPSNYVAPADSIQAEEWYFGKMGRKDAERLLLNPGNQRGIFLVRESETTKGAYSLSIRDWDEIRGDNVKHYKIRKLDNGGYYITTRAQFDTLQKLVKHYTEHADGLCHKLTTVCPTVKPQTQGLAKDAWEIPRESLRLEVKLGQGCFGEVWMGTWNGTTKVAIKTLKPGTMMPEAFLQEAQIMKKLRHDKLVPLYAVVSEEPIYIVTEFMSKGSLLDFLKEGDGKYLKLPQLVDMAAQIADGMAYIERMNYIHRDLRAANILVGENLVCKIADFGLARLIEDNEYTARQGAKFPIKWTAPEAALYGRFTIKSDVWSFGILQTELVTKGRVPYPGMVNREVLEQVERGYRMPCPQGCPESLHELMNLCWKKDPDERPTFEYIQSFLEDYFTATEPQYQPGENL
Mitogen-activated protein kinase kinase kinase 13 (Homo sapiens), sequence (O43283 whole entry): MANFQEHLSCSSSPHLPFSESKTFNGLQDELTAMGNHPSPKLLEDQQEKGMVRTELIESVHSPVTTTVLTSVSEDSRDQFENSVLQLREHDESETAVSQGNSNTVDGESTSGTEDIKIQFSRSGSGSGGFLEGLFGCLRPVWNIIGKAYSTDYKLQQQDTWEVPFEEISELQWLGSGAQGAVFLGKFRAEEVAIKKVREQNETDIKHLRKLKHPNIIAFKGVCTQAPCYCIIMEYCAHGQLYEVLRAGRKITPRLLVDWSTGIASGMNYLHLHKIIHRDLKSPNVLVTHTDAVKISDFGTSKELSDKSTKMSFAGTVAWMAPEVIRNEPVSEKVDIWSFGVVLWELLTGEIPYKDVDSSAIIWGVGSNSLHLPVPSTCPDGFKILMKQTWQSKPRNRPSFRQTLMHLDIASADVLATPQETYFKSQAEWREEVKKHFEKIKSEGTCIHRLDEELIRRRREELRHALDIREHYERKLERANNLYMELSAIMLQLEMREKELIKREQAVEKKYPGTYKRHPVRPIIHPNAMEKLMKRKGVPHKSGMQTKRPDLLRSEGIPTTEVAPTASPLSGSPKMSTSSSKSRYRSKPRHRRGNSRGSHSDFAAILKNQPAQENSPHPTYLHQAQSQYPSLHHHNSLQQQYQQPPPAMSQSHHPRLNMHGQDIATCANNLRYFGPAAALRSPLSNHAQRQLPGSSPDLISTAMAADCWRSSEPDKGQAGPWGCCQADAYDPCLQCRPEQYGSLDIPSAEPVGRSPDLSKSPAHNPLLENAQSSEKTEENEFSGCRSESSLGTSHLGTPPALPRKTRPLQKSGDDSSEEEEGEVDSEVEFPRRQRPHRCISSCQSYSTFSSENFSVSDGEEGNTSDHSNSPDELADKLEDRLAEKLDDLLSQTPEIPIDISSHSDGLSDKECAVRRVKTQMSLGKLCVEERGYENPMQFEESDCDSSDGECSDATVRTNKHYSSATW
Calcium/calmodulin-dependent protein kinase type 1 (Homo sapiens), sequence (Q14012 whole entry, looked up): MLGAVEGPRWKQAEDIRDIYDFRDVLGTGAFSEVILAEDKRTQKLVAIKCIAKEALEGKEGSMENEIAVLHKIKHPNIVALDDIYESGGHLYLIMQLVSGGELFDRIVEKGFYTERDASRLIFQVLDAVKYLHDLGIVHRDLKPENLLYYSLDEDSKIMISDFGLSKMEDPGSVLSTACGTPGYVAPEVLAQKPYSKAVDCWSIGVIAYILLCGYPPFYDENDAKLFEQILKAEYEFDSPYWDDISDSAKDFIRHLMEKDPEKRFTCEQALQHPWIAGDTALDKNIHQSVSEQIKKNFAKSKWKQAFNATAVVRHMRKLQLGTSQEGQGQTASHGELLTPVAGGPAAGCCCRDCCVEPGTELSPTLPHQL
Phosphatidylinositol 4,5-bisphosphate 3-kinase catalytic subunit alpha isoform (Homo sapiens), P42336 [E542K], sequence (P42336 whole entry E542K, canonical isoform): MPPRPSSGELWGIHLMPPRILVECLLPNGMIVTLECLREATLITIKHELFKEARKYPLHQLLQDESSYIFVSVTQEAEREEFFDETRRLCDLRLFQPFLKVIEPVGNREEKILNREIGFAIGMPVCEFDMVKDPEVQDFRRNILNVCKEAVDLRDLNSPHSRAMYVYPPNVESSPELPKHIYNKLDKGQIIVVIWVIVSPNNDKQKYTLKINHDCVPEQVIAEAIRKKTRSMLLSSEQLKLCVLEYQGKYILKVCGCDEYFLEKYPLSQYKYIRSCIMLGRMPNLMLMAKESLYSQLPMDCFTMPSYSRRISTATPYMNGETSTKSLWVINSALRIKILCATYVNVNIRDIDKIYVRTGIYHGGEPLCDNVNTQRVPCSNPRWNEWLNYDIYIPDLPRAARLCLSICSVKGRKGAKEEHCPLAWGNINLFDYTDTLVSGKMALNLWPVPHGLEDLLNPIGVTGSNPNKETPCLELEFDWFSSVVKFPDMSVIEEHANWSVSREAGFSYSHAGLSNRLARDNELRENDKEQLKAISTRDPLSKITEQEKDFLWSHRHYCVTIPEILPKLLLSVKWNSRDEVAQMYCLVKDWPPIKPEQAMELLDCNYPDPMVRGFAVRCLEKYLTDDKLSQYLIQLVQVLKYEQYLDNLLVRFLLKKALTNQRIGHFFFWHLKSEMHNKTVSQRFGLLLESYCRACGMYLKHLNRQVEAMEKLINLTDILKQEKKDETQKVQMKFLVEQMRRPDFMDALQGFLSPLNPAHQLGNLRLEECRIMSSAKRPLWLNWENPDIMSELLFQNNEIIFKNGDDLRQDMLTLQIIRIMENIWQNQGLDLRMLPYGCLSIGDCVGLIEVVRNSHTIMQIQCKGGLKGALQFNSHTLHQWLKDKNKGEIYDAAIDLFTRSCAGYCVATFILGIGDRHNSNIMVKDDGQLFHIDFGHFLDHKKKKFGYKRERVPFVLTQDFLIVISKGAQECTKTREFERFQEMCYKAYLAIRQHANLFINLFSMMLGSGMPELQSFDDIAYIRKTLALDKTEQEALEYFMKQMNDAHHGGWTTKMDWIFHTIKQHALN
NUAK family SNF1-like kinase 1 (Homo sapiens), sequence (O60285 whole entry): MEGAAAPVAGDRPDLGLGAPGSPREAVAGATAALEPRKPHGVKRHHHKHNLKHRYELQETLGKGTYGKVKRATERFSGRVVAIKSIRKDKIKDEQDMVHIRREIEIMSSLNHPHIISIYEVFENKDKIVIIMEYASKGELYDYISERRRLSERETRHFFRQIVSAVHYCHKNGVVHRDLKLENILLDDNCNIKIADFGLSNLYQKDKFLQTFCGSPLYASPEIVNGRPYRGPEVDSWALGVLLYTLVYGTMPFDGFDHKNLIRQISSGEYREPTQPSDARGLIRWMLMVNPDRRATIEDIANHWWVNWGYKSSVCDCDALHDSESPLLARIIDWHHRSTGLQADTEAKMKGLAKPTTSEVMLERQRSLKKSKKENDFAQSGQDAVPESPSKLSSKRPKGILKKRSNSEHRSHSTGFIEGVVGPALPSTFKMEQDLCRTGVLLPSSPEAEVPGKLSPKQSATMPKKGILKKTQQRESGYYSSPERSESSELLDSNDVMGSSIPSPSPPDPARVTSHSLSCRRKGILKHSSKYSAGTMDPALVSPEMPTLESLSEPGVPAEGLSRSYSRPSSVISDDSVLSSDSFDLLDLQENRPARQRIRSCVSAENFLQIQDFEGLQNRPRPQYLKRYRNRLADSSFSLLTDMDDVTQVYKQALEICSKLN
Cyclin-dependent kinase 18 (Homo sapiens), sequence (Q07002 whole entry): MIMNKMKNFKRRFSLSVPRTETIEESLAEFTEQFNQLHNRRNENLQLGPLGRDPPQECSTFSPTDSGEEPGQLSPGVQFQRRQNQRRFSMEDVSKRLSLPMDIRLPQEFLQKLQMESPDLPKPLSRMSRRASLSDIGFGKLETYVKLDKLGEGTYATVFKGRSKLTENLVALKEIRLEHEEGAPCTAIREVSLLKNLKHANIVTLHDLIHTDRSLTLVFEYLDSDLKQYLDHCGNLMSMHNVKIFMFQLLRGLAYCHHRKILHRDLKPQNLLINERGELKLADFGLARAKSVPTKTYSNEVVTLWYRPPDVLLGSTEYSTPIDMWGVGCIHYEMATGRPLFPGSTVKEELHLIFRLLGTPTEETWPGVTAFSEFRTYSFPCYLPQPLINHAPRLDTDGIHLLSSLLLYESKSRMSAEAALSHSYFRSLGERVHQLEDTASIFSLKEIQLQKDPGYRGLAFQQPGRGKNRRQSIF
Cyclin-dependent kinase 2 homolog (Plasmodium falciparum (isolate 3D7)), sequence (P61075 whole entry, canonical isoform): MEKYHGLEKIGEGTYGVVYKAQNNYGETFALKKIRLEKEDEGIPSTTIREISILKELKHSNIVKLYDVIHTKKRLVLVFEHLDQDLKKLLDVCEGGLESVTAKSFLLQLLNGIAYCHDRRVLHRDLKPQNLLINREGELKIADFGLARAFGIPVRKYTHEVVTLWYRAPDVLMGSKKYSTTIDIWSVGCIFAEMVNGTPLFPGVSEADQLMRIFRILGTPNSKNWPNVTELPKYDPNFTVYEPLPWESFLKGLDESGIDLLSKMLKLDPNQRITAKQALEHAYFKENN

CSc1cccnc1N1CCN(Cc2nc3ccccc3[nH]2)CC1 [A-769]
inactive: [1] 98% | [2] 100% | [3] 100% | [4] 100% | [5] 85% | [6] 100% | [7] 100% | [8] 84% | [9] 98% | [10] 81% | [11] 85% | [12] 93% | [13] 100% | [14] 74% | [15] 100% | [16] 72% | [17] 82% | [18] 100% | [19] 89% | [20] 100% | [21] 96% | [22] 100% | [23] 87% | [24] 100% | [25] 89% | [26] 89% | [27] 92% | [28] 82% | [29] 96% | [30] 84% | [31] 74% | [32] 96% | [33] 100% | [34] 91% | [35] 100% | [36] 100% | [37] 100% | [38] 100% | [39] 100% | [40] 100% | [41] 85% | [42] 89% | [43] 100% | [44] 100% | [45] 100%

c1ccc(N2CCN(Cc3nc4ccccc4[nH]3)CC2)nc1 [ABT-724]
inactive: [1] 100% | [2] 98% | [3] 100% | [4] 89% | [5] 100% | [6] 100% | [7] 100% | [8] 100% | [9] 100% | [10] 100% | [11] 99% | [12] 100% | [13] 100% | [14] 100% | [15] 91% | [16] 100% | [17] 86% | [18] 100% | [19] 100% | [20] 100% | [21] 100% | [22] 94% | [23] 100% | [24] 94% | [25] 100% | [26] 99% | [27] 100% | [28] 100% | [29] 87% | [30] 100% | [31] 100% | [32] 79% | [33] 100% | [34] 100% | [35] 100% | [36] 100% | [37] 100% | [38] 100% | [39] 100% | [40] 100% | [41] 100% | [42] 100% | [43] 100% | [44] 100% | [45] 100%
